For experiment [1], the target named is T1, Phosphatidylinositol 4,5-bisphosphate 3-kinase catalytic subunit alpha isoform (Homo sapiens, UniProt P42336). The experiment is described as follows: Inhibition of human recombinant PI3Kalpha assessed as production of 3,4,5-inositoltriphosphate after 3 hrs by fluorescence polarization assay.
In the next experiment the test system is HCT-116. The experiment is described as follows: cells. Particulars: Homo sapiens, HCT-116, 72 h.
The subject of a further experiment is HL-60. Description: Cytotoxicity against human HL60 cells after 72 hrs by MTT assay. Particulars: HL-60, 72 h. In kind it is functional, cell-based.
The subject of a further experiment is A549. Description: Cytotoxicity against human A549 cells after 72 hrs by MTT assay. The experiment is classed as functional, cell-based. Particulars: A549, 72 h.
Another experiment concerns PC-3. Description: cells. To be noted: Homo sapiens, PC-3, 72 h.
The target of experiment [2] is T1, Phosphatidylinositol 4,5-bisphosphate 3-kinase catalytic subunit alpha isoform. Description: Inhibition of PI3K in human PC3 cells assessed as suppression of Akt Ser473 phosphorylation at 10 uM after 3 hrs by SDS-PAGE and Western blot analysis. In kind it is cell-based. To be noted: PC-3.
The test system of a further experiment is KB. Description: Cytotoxicity against human KB cells after 72 hrs by MTT assay. The experiment is classed as functional, cell-based.

IC50 and inhibition data for 16 compounds are collected here from ChEMBL document CHEMBL1833862, “Synthesis and biological evaluation of novel 2-arylamino-3-(arylsulfonyl)quinoxalines as PI3Kα inhibitors” (Eur J Med Chem, 2011).

SMILES strings stand for the structures. Calls of active or inactive are those of the source. No cut-off for these calls is given here.

T1 sequence (P42336 whole entry, canonical isoform): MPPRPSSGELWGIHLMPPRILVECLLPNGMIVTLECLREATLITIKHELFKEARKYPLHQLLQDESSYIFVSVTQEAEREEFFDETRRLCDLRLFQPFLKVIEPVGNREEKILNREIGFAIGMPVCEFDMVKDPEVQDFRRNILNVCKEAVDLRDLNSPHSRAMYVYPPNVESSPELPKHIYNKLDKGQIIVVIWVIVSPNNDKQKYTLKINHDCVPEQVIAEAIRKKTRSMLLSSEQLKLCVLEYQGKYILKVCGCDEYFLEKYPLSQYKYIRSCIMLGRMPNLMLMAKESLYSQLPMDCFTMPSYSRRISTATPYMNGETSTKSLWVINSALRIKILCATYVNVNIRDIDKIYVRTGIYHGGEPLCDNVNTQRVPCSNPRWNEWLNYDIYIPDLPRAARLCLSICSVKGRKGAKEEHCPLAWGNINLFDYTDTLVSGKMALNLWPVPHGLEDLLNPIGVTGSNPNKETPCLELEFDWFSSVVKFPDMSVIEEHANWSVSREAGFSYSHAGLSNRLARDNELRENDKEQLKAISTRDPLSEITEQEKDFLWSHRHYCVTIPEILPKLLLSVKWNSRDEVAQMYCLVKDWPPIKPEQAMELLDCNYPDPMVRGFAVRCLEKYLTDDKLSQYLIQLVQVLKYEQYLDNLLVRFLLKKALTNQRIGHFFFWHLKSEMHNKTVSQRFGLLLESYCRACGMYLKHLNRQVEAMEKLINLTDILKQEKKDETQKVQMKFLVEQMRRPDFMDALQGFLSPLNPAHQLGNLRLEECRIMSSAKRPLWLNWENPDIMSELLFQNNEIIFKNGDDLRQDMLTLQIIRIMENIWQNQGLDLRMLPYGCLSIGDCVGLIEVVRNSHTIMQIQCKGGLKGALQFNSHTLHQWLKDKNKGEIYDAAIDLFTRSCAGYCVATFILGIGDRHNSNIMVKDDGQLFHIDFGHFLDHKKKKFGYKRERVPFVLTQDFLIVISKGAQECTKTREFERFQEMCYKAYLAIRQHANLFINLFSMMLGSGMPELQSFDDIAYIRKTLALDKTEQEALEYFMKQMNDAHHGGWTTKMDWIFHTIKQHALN
Description for PC-3: Cytotoxicity against human PC3 cells after 72 hrs by MTT assay

As to `COc1cc(Nc2nc3ccccc3nc2S(=O)(=O)c2ccccc2)cc(OC)c1`, the IC50 in experiment [1] came out at 70 nM; in the experiment on HCT-116, 950 nM; in the experiment on HL-60 it was 50 nM; in the experiment on A549 it was 70 nM; in the experiment on PC-3, 140 nM.
Consider `COc1cc(Nc2nc3ccccc3nc2S(=O)(=O)c2ccc(C)cc2)cc(OC)c1`, for which the IC50 was more than 50000 nM with HCT-116, 20 nM with HL-60, 8060 nM in the experiment with A549 and 2940 nM in the experiment with PC-3. Moreover, in experiment [2], the inhibition result was “Active”.
Regarding `Nc1ccc(Nc2nc3ccccc3nc2S(=O)(=O)c2ccc(Br)cc2)cc1`, the half-inhibitory concentration (IC50) with HCT-116 was found to be 1390 nM; with HL-60, 730 nM; with A549, 1020 nM; with KB, 4080 nM; with PC-3, 2330 nM. In addition, the inhibition result in experiment [2] is “Active”.
For the compound `COc1ccc(S(=O)(=O)c2nc3ccccc3nc2Nc2ccccc2)cc1`, the half-inhibitory concentration (IC50) with HCT-116 was found to be 1260 nM; in the experiment on HL-60, 260 nM; in the experiment on A549, 13200 nM; in the experiment with KB, 9890 nM; with PC-3 it was 1260 nM.
Turning to `O=S(=O)(c1ccccc1)c1nc2ccccc2nc1Nc1ccc(Cl)cc1`, the IC50 was found to be 2000 nM with HCT-116; 1920 nM in the experiment with HL-60; 30700 nM in the experiment on A549; 41200 nM in the experiment with KB; 15300 nM with PC-3.
`O=S(=O)(c1ccc(Br)cc1)c1nc2ccccc2nc1Nc1cccc(O)c1`: the IC50 amounted to 470 nM in experiment [1]; 540 nM in the experiment with HCT-116; 200 nM with HL-60; 8000 nM in the experiment on A549; 8410 nM in the experiment with KB; 1700 nM in the experiment on PC-3.
Turning to `Nc1cccc(Nc2nc3ccccc3nc2S(=O)(=O)c2ccc(Br)cc2)c1`, the IC50 with HCT-116 came to 3280 nM; in the experiment on HL-60, 1370 nM; with A549 it was 1120 nM; in the experiment with KB, 5340 nM; with PC-3 it was 9010 nM.
For the compound `Nc1ccc(Nc2nc3ccccc3nc2S(=O)(=O)c2ccccc2)cc1`, the IC50 with HCT-116 worked out at 10800 nM; in the experiment with HL-60, 8720 nM; with A549, 12800 nM; in the experiment on KB, 3400 nM; in the experiment with PC-3 it was 5830 nM.
For `Cc1ccc(S(=O)(=O)c2nc3ccccc3nc2Nc2ccc(N)cc2)cc1`, in that order: 11500 nM, 1220 nM, 24600 nM, 5630 nM and 5000 nM.
`COc1ccc(S(=O)(=O)c2nc3ccccc3nc2Nc2cccc(O)c2)cc1`: the IC50 in experiment [1] is more than 1000 nM; with HCT-116 it was 820 nM; in the experiment on HL-60, 140 nM; with A549, 6110 nM; in the experiment on KB, 8270 nM; in the experiment on PC-3, 1630 nM.
`Cc1ccc(S(=O)(=O)c2nc3ccccc3nc2Nc2ccc(Cl)cc2)cc1`: the IC50 in the experiment with HCT-116 turned out to be 2050 nM; in the experiment with HL-60, 17500 nM; with A549, 54200 nM; in the experiment with KB, 13800 nM; in the experiment on PC-3, 9660 nM.
Take `Cc1ccc(S(=O)(=O)c2nc3ccccc3nc2Nc2ccccc2)cc1`: the IC50 is 1070 nM in the experiment with HCT-116; 400 nM with HL-60; 12500 nM in the experiment with A549; 19000 nM in the experiment with KB; 1060 nM in the experiment with PC-3.
For `Nc1cccc(Nc2nc3ccccc3nc2S(=O)(=O)c2ccccc2)c1`, the IC50 with HCT-116 turned out to be 1540 nM; with HL-60, 1750 nM; in the experiment with A549, 1590 nM; with KB, 4290 nM; with PC-3 it was 2150 nM.
Regarding `O=S(=O)(c1ccccc1)c1nc2ccccc2nc1Nc1cccc(O)c1`, the IC50 was more than 1000 nM in experiment [1]; 1150 nM with HCT-116; 220 nM in the experiment with HL-60; 5730 nM with A549; 8420 nM in the experiment with KB; 1680 nM in the experiment on PC-3.
Take `Cc1ccc(S(=O)(=O)c2nc3ccccc3nc2Nc2cccc(O)c2)cc1`: the half-maximal inhibitory concentration (IC50) is more than 1000 nM in experiment [1]; 3810 nM with HCT-116; 400 nM with HL-60; 6080 nM in the experiment with A549; 5350 nM in the experiment on KB; 1690 nM with PC-3.
On to `O=S(=O)(c1ccc(Br)cc1)c1nc2ccccc2nc1Nc1ccccc1`, for which the IC50 was determined as 1110 nM in the experiment on HCT-116; 130 nM in the experiment on HL-60; 10800 nM in the experiment on A549; 5100 nM with KB; 1180 nM in the experiment with PC-3.
